Data reported in ChEMBL document CHEMBL1201862, “PubChem BioAssay data set” (2004).
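How tested: cells in 96-well plates exposed to compound for 48 hours at five concentrations. GI50: concentration for 50% inhibition of growth.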 Calls of active or inactive are those of the source. Rule as the data show it: active = GI50 up to about 1.1 µM and inactive = higher.

What was measured:
Assay in all cases: NCI-60 cell line screen, 48 h
SF-539 = test system: SF-539
SR = test system: SR
BT-549 = test system: BT-549
786-0 = test system: 786-0
MOLT-4 = test system: MOLT-4
MDA-MB-231 = test system: MDA-MB-231
SNB-19 = test system: SNB-19
NCI-H23 = test system: NCI-H23
Hs-578T = test system: Hs-578T
COLO 205 = test system: COLO 205
NCI-H226 = test system: NCI-H226
UACC-62 = test system: UACC-62
HCT-116 = test system: HCT-116
IGROV-1 = test system: IGROV-1
HCC 2998 = test system: HCC 2998
K562 = test system: K562
RPMI-8226 = test system: RPMI-8226
SK-OV-3 = test system: SK-OV-3
NCI-H522 = test system: NCI-H522
M19-MEL = test system: M19-MEL

SMILES	GI50 (SF-539)	GI50 (SR)	GI50 (BT-549)	GI50 (786-0)	GI50 (MOLT-4)	GI50 (MDA-MB-231)	GI50 (SNB-19)	GI50 (NCI-H23)	GI50 (Hs-578T)	GI50 (COLO 205)	GI50 (NCI-H226)	GI50 (UACC-62)	GI50 (HCT-116)	GI50 (IGROV-1)	GI50 (HCC 2998)	GI50 (K562)	GI50 (RPMI-8226)	GI50 (SK-OV-3)	GI50 (NCI-H522)	GI50 (M19-MEL)
CCOC(=O)/C=C(\C(=O)OCC)n1cc(C)c(=O)n(Cc2cnnn2CCCCOC(C)=O)c1=O	2.36 µM (inactive)	1.9 µM (inactive)	8.28 µM (inactive)	2.96 µM (inactive)	2.64 µM (inactive)	22.2 µM (inactive)	25.4 µM (inactive)	17.1 µM (inactive)	17 µM (inactive)	2.09 µM (inactive)	7.43 µM (inactive)	15 µM (inactive)	6.53 µM (inactive)	12.7 µM (inactive)	21 µM (inactive)	2.64 µM (inactive)	7.36 µM (inactive)	> 62.4 µM (inactive)	1.38 µM (inactive)	–
CN(C)c1ccc2c3c(c(=O)oc2c1)CCC3	> 100 µM (inactive)	42.6 µM (inactive)	> 100 µM (inactive)	58.6 µM (inactive)	27.2 µM (inactive)	28.7 µM (inactive)	> 100 µM (inactive)	74 µM (inactive)	36.8 µM (inactive)	33.1 µM (inactive)	85.5 µM (inactive)	29.4 µM (inactive)	60.8 µM (inactive)	84.1 µM (inactive)	54.7 µM (inactive)	69.3 µM (inactive)	37.6 µM (inactive)	–	26.7 µM (inactive)	–
CC[P+](C)(C)c1ccccc1	> 100 µM (inactive)	–	–	> 100 µM (inactive)	> 100 µM (inactive)	–	> 100 µM (inactive)	> 100 µM (inactive)	–	> 100 µM (inactive)	–	> 100 µM (inactive)	–	> 100 µM (inactive)	> 100 µM (inactive)	> 100 µM (inactive)	> 100 µM (inactive)	> 100 µM (inactive)	–	> 100 µM (inactive)
Clc1ccc(C2=CCN3CC=C(c4ccc(Cl)cc4)C23)cc1	15.9 µM (inactive)	6.7 µM (inactive)	11.6 µM (inactive)	11.6 µM (inactive)	5.28 µM (inactive)	12.4 µM (inactive)	14.5 µM (inactive)	12 µM (inactive)	13.5 µM (inactive)	2.7 µM (inactive)	24 µM (inactive)	7.24 µM (inactive)	5.98 µM (inactive)	9.93 µM (inactive)	3.06 µM (inactive)	3.17 µM (inactive)	4.66 µM (inactive)	–	10.2 µM (inactive)	–
[O-][S+]1SC(=S)C2C=CC=NC21 (stereo unspecified)	16 µM (inactive)	11.5 µM (inactive)	19 µM (inactive)	14.5 µM (inactive)	16.4 µM (inactive)	18.7 µM (inactive)	26.1 µM (inactive)	18.6 µM (inactive)	20.7 µM (inactive)	21.3 µM (inactive)	22.2 µM (inactive)	21.3 µM (inactive)	13.7 µM (inactive)	20.1 µM (inactive)	15.5 µM (inactive)	20.9 µM (inactive)	32.1 µM (inactive)	32.6 µM (inactive)	14.3 µM (inactive)	–
CCOC(=O)c1c2ccc(/C=C/c3ccccn3)ccc-2c(C(=O)OCC)c1N	88.9 µM (inactive)	–	–	> 100 µM (inactive)	> 100 µM (inactive)	–	> 100 µM (inactive)	> 100 µM (inactive)	–	> 100 µM (inactive)	> 100 µM (inactive)	> 100 µM (inactive)	–	> 100 µM (inactive)	> 100 µM (inactive)	> 100 µM (inactive)	–	> 100 µM (inactive)	91 µM (inactive)	> 100 µM (inactive)
CCCCCCCCCCCCCCCC(=O)N(CCCCCCCCCCC(=O)O)CC(O)C(O)C(OC1OC(CO)C(O)C(O)C1O)C(O)CO (stereo unspecified)	21.3 µM (inactive)	29.1 µM (inactive)	25.4 µM (inactive)	74.5 µM (inactive)	28.4 µM (inactive)	> 100 µM (inactive)	24.5 µM (inactive)	40.9 µM (inactive)	40.5 µM (inactive)	18.4 µM (inactive)	> 100 µM (inactive)	18.9 µM (inactive)	49.2 µM (inactive)	60.8 µM (inactive)	21.1 µM (inactive)	22.5 µM (inactive)	29.2 µM (inactive)	54.7 µM (inactive)	39.3 µM (inactive)	–
Cc1ccc(Nc2nnc(-c3ccc4c(c3)OCO4)o2)c(C)c1	64.6 µM (inactive)	31.1 µM (inactive)	> 100 µM (inactive)	41.4 µM (inactive)	1.71 µM (inactive)	62.2 µM (inactive)	40.2 µM (inactive)	> 100 µM (inactive)	> 100 µM (inactive)	> 100 µM (inactive)	> 100 µM (inactive)	32.8 µM (inactive)	> 100 µM (inactive)	> 100 µM (inactive)	> 100 µM (inactive)	> 100 µM (inactive)	54 µM (inactive)	> 100 µM (inactive)	30.5 µM (inactive)	–
O=C(O)C(Br)C(Br)C(=O)O (stereo unspecified)	> 100 µM (inactive)	28.2 µM (inactive)	> 100 µM (inactive)	> 100 µM (inactive)	–	> 100 µM (inactive)	> 100 µM (inactive)	> 100 µM (inactive)	> 100 µM (inactive)	> 100 µM (inactive)	> 100 µM (inactive)	> 100 µM (inactive)	> 100 µM (inactive)	> 100 µM (inactive)	> 100 µM (inactive)	> 100 µM (inactive)	> 100 µM (inactive)	> 100 µM (inactive)	> 100 µM (inactive)	–
CC[C@@H]1CN(C)[C@H]2Cc3c([nH]c4ccccc34)C(=O)C[C@H]1C2C(=O)OC (stereo partly specified)	> 100 µM (inactive)	> 100 µM (inactive)	> 100 µM (inactive)	> 100 µM (inactive)	> 93.8 µM (inactive)	> 100 µM (inactive)	> 100 µM (inactive)	> 100 µM (inactive)	> 100 µM (inactive)	> 100 µM (inactive)	> 100 µM (inactive)	> 100 µM (inactive)	> 100 µM (inactive)	> 100 µM (inactive)	> 100 µM (inactive)	> 100 µM (inactive)	> 88.5 µM (inactive)	> 100 µM (inactive)	> 100 µM (inactive)	–
CCOC(=O)/C(=C\c1ccc(F)cc1)C(C)=O	34 µM (inactive)	19 µM (inactive)	21.5 µM (inactive)	22.3 µM (inactive)	26.5 µM (inactive)	22.6 µM (inactive)	33.8 µM (inactive)	21.2 µM (inactive)	36.1 µM (inactive)	36 µM (inactive)	35.5 µM (inactive)	18.9 µM (inactive)	29.2 µM (inactive)	18.2 µM (inactive)	13.5 µM (inactive)	30.3 µM (inactive)	21.8 µM (inactive)	35 µM (inactive)	14.3 µM (inactive)	–
O=c1c2ccccc2[nH]c(=S)n1-c1ccc(/N=N/c2cccc3cc(O)ccc23)cc1	> 100 µM (inactive)	94.6 µM (inactive)	> 100 µM (inactive)	65.5 µM (inactive)	> 100 µM (inactive)	48.4 µM (inactive)	> 100 µM (inactive)	> 100 µM (inactive)	> 100 µM (inactive)	44.5 µM (inactive)	> 100 µM (inactive)	49.2 µM (inactive)	> 100 µM (inactive)	64.9 µM (inactive)	> 100 µM (inactive)	73.6 µM (inactive)	> 100 µM (inactive)	> 100 µM (inactive)	> 100 µM (inactive)	–
CCCC(=O)O[C@H]1C=C2C[C@@]34SS[C@]5(CC6=C[C@H](OC(C)=O)[C@@H]7O[C@@H]7[C@H]6N5C3=O)C(=O)N4[C@@H]2[C@H]2O[C@H]21	0.0194 µM (active)	< 0.005 µM (active)	0.021 µM (active)	< 0.005 µM (active)	0.00904 µM (active)	0.0254 µM (active)	0.0126 µM (active)	0.0241 µM (active)	0.0203 µM (active)	0.0137 µM (active)	0.0766 µM (active)	0.0225 µM (active)	0.00847 µM (active)	0.0168 µM (active)	0.00923 µM (active)	0.00923 µM (active)	0.00524 µM (active)	0.0569 µM (active)	< 0.005 µM (active)	–
O=c1cc(-c2ccccc2)[nH]c2cccc(S)c12	0.2 µM (active)	0.172 µM (active)	13.6 µM (inactive)	0.301 µM (active)	0.37 µM (active)	0.455 µM (active)	0.375 µM (active)	0.445 µM (active)	0.205 µM (active)	0.249 µM (active)	0.406 µM (active)	0.155 µM (active)	0.0867 µM (active)	0.341 µM (active)	0.344 µM (active)	0.0588 µM (active)	0.424 µM (active)	0.119 µM (active)	0.0782 µM (active)	–
CO/C=C(/C(=O)OC)c1ccccc1[C@@H]1CC1c1cccc(F)c1 (stereo partly specified)	28.4 µM (inactive)	21.2 µM (inactive)	25.4 µM (inactive)	41 µM (inactive)	29.2 µM (inactive)	29.9 µM (inactive)	53.3 µM (inactive)	24.5 µM (inactive)	41.1 µM (inactive)	15.7 µM (inactive)	25.6 µM (inactive)	18.2 µM (inactive)	21.1 µM (inactive)	18.2 µM (inactive)	25 µM (inactive)	44.2 µM (inactive)	19.5 µM (inactive)	25.5 µM (inactive)	14.2 µM (inactive)	–
